Active and inactive are the calls of the source. The calls are words filed in the database; no cut-off is given here.
Experiments:
[1] = (§1) Cytotoxicity against human TZM-bl cells after 72 hrs by MTT assay; type: cell-based; details: TZM-bl cells
[2] = Selectivity index, ratio of CC50 for human TZM-bl cells to IC50 for HIV-1 3B infected in human TZM-bl cells; type: toxicity, cell-based; details: for selectivity ratio: TZM-bl cells, read-out: Ratio CC50/IC50
[3] = system: Human immunodeficiency virus 1; test: Antiviral activity against HIV-1 3B infected in human TZM-bl cells treated for 2 hrs followed by compound washout measured after 2 days by luciferase reporter assay; type: functional, organism-based
TZM = test: as §1; type: cell-based; details: tzm, 72 h
[4] = system: Human immunodeficiency virus 1; test: Antiviral activity against HIV-1 3B infected in human TZM-bl cells at 10 uM treated simultaneously with viral infection for 2 hrs followed by compound washout measured after 2 days by luciferase reporter assay; type: functional, organism-based
[5] = system: Human immunodeficiency virus 1; test: Antiviral activity against HIV-1 3B infected in human TZM-bl cells at 10 uM treated 2 to 6 hrs post infection for 2 hrs followed by compound washout measured after 2 days by luciferase reporter assay; type: functional, organism-based
[6] = Human immunodeficiency virus 1, 3B, TZM-bl

| IC50 [3] [µM] | Compound | CC50 at 72 h [1] [µM] | Ratio CC50/IC50 [2] | IC50 [3, 6] [µM] | CC50 (TZM) [µM] | selectivity ratio [2] | Activity [4] | Activity [5] |
| --- | --- | --- | --- | --- | --- | --- | --- | --- |
|  | Cc1cc2c(c(O)c1-c1c(C)cc3c(c1O)/C(=C/N[C@@H](Cc1ccccc1)C(=O)[O-])C(=O)C(O)=C3C(C)C)/C(=C/N[C@@H](Cc1ccccc1)C(=O)[O-])C(=O)C(O)=C2C(C)C.[Na+].[Na+] (stereo in doubt; (+)-13b) | 53.8 | 6.55 | 8.21 |  |  |  |  |
| 6.99 | Cc1cc2c(c(O)c1-c1c(C)cc3c(c1O)/C(=C/N[C@@H](Cc1ccccc1)C(=O)O)C(=O)C(O)=C3C(C)C)/C(=C/N[C@@H](Cc1ccccc1)C(=O)O)C(=O)C(O)=C2C(C)C (stereo in doubt; (-)-13a) |  |  |  | 37.7 | 5.39 |  |  |
|  | Cc1cc2c(c(O)c1-c1c(C)cc3c(c1O)/C(=C/NC(C)S(=O)(=O)O)C(=O)C(O)=C3C(C)C)/C(=C/NC(C)S(=O)(=O)O)C(=O)C(O)=C2C(C)C (single isomer, unassigned; (-)) |  |  |  |  |  | Active | inactive |
| 0.47 | CC[C@H](C)[C@H](N/C=C1\C(=O)C(O)=C(C(C)C)c2cc(C)c(-c3c(C)cc4c(c3O)/C(=C/N[C@H](C(=O)[O-])[C@@H](C)CC)C(=O)C(O)=C4C(C)C)c(O)c21)C(=O)[O-].[Na+].[Na+] (stereo in doubt; (-)-11a) |  | 132.29 |  | 62.2 |  |  |  |
| 1.38 | Cc1cc2c(c(O)c1-c1c(C)cc3c(c1O)/C(=C/NCC(=O)NCC(=O)NCC(=O)[O-])C(=O)C(O)=C3C(C)C)/C(=C/NCC(=O)NCC(=O)NCC(=O)[O-])C(=O)C(O)=C2C(C)C.[Na+].[Na+] (stereo in doubt; (-)-6a) |  | 31.71 |  | 43.8 |  |  |  |
| 0.68 | Cc1cc2c(c(O)c1-c1c(C)cc3c(c1O)/C(=C/N[C@@H](CC(C)C)C(=O)[O-])C(=O)C(O)=C3C(C)C)/C(=C/N[C@@H](CC(C)C)C(=O)[O-])C(=O)C(O)=C2C(C)C.[Na+].[Na+] (stereo in doubt; (-)-10a) |  | 78.41 |  | 53.3 |  |  |  |
|  | Cc1cn([C@H]2C[C@H](N=[N+]=[N-])[C@@H](CO)O2)c(=O)[nH]c1=O [ZIDOVUDINE] |  |  | 0.0028 |  |  | Active | inactive |
| 6.39 | Cc1cc2c(c(O)c1-c1c(C)cc3c(c1O)/C(=C/NC(C)C(=O)NC(C)C(=O)NC(C)C(=O)[O-])C(=O)C(O)=C3C(C)C)/C(=C/NC(C)C(=O)NC(C)C(=O)NC(C)C(=O)[O-])C(=O)C(O)=C2C(C)C.[Na+].[Na+] (single isomer, unassigned; (+)) | 58.7 | 9.19 |  |  |  |  |  |
| 6.32 | Cc1cc2c(c(O)c1-c1c(C)cc3c(c1O)/C(=C/NC(C)C(=O)NC(Cc1ccccc1)C(=O)[O-])C(=O)C(O)=C3C(C)C)/C(=C/NC(C)C(=O)NC(Cc1ccccc1)C(=O)[O-])C(=O)C(O)=C2C(C)C.[Na+].[Na+] (stereo in doubt; (+)-5b) | 50.3 | 7.97 |  |  |  |  |  |
| 1.25 | Cc1cc2c(c(O)c1-c1c(C)cc3c(c1O)/C(=C/NC(CC(=O)[O-])C(=O)NC(C)C(=O)[O-])C(=O)C(O)=C3C(C)C)/C(=C/NC(CC(=O)[O-])C(=O)NC(C)C(=O)[O-])C(=O)C(O)=C2C(C)C.[Na+].[Na+].[Na+].[Na+] (single isomer, unassigned; (-)) |  | 34.1 |  | 42.6 |  |  |  |
| 4.13 | Cc1cc2c(c(O)c1-c1c(C)cc3c(c1O)/C(=C/N[C@@H](C)C(=O)[O-])C(=O)C(O)=C3C(C)C)/C(=C/N[C@@H](C)C(=O)[O-])C(=O)C(O)=C2C(C)C.[Na+].[Na+] (stereo in doubt; (+)-8b) | 72.6 | 17.59 |  |  |  |  |  |
| 7.64 | Cc1cc2c(c(O)c1-c1c(C)cc3c(c1O)/C(=C/N[C@@H]1[C@@H](O)[C@H](O)[C@@H](CO)O[C@H]1O)C(=O)C(O)=C3C(C)C)/C(=C/N[C@@H]1[C@@H](O)[C@H](O)[C@@H](CO)O[C@H]1O)C(=O)C(O)=C2C(C)C (stereo in doubt; (+)-1b) | 32.9 | 4.3 |  |  |  |  |  |
| 4.28 | Cc1cc2c(c(O)c1-c1c(C)cc3c(c1O)/C(=C/NC(C)C(=O)NCC(=O)[O-])C(=O)C(O)=C3C(C)C)/C(=C/NC(C)C(=O)NCC(=O)[O-])C(=O)C(O)=C2C(C)C.[Na+].[Na+] (single isomer, unassigned; (+)) | 61.1 | 14.28 |  |  |  |  |  |
| 0.49 | Cc1cc2c(c(O)c1-c1c(C)cc3c(c1O)/C(=C/N[C@H](C(=O)[O-])C(C)C)C(=O)C(O)=C3C(C)C)/C(=C/N[C@H](C(=O)[O-])C(C)C)C(=O)C(O)=C2C(C)C.[Na+].[Na+] (stereo in doubt; (-)-9a) |  | 101.82 |  | 49.9 |  |  |  |
| 1.08 | Cc1cc2c(c(O)c1-c1c(C)cc3c(c1O)/C(=C/N[C@@H](Cc1c[nH]c4ccccc14)C(=O)[O-])C(=O)C(O)=C3C(C)C)/C(=C/N[C@@H](Cc1c[nH]c3ccccc13)C(=O)[O-])C(=O)C(O)=C2C(C)C.[Na+].[Na+] (stereo in doubt; (-)-12a) |  | 44.66 |  | 48.2 |  |  |  |
|  | Cc1cc2c(c(O)c1-c1c(C)cc3c(c1O)/C(=C/N[C@@H]1[C@@H](O)[C@H](O)[C@@H](CO)O[C@H]1O)C(=O)C(O)=C3C(C)C)/C(=C/N[C@@H]1[C@@H](O)[C@H](O)[C@@H](CO)O[C@H]1O)C(=O)C(O)=C2C(C)C (stereo in doubt; (-)-1a) |  |  |  |  |  | Active | inactive |
| 7.16 | Cc1cc2c(c(O)c1-c1c(C)cc3c(c1O)/C(=C/N[C@@H](CC(C)C)C(=O)[O-])C(=O)C(O)=C3C(C)C)/C(=C/N[C@@H](CC(C)C)C(=O)[O-])C(=O)C(O)=C2C(C)C.[Na+].[Na+] (stereo in doubt; (+)-10b) | 60.1 | 8.4 |  |  |  |  |  |
| 1.56 | Cc1cc2c(c(O)c1-c1c(C)cc3c(c1O)/C(=C/NC(C)C(=O)NCC(=O)O)C(=O)C(O)=C3C(C)C)/C(=C/NC(C)C(=O)NCC(=O)O)C(=O)C(O)=C2C(C)C (single isomer, unassigned; (-)) |  |  |  | 40.3 | 25.8 |  |  |
| 5.82 | Cc1cc2c(c(O)c1-c1c(C)cc3c(c1O)/C(=C/NC(C)C(=O)NC(C)C(=O)[O-])C(=O)C(O)=C3C(C)C)/C(=C/NC(C)C(=O)NC(C)C(=O)[O-])C(=O)C(O)=C2C(C)C.[Na+].[Na+] (stereo in doubt; (+)-3b) | 59.5 | 10.22 |  |  |  |  |  |
| 6.62 | Cc1cc2c(c(O)c1-c1c(C)cc3c(c1O)/C(=C/NCC(=O)NCC(=O)NCC(=O)[O-])C(=O)C(O)=C3C(C)C)/C(=C/NCC(=O)NCC(=O)NCC(=O)[O-])C(=O)C(O)=C2C(C)C.[Na+].[Na+] (stereo in doubt; (+)-6b) | 62.4 | 9.42 |  |  |  |  |  |
|  | Cc1cc2c(c(O)c1-c1c(C)cc3c(c1O)/C(=C/NC(C)S(=O)(=O)[O-])C(=O)C(O)=C3C(C)C)/C(=C/NC(C)S(=O)(=O)[O-])C(=O)C(O)=C2C(C)C.[Na+].[Na+] (single isomer, unassigned; (+)) | 54.8 | 27.81 | 1.97 |  |  |  |  |
| 1.45 | Cc1cc2c(c(O)c1-c1c(C)cc3c(c1O)/C(=C/NC(C)C(=O)NC(C)C(=O)NC(C)C(=O)[O-])C(=O)C(O)=C3C(C)C)/C(=C/NC(C)C(=O)NC(C)C(=O)NC(C)C(=O)[O-])C(=O)C(O)=C2C(C)C.[Na+].[Na+] (single isomer, unassigned; (-)) |  | 27.19 |  | 39.4 |  |  |  |
| 4.22 | CC[C@H](C)[C@H](N/C=C1\C(=O)C(O)=C(C(C)C)c2cc(C)c(-c3c(C)cc4c(c3O)/C(=C/N[C@H](C(=O)[O-])[C@@H](C)CC)C(=O)C(O)=C4C(C)C)c(O)c21)C(=O)[O-].[Na+].[Na+] (stereo in doubt; (+)-11b) | 73.9 | 17.5 |  |  |  |  |  |
| 1.62 | Cc1cc2c(c(O)c1-c1c(C)cc3c(c1O)/C(=C/NC(C)C(=O)NC(Cc1ccccc1)C(=O)[O-])C(=O)C(O)=C3C(C)C)/C(=C/NC(C)C(=O)NC(Cc1ccccc1)C(=O)[O-])C(=O)C(O)=C2C(C)C.[Na+].[Na+] (stereo in doubt; (-)-5a) |  | 20.57 |  | 33.3 |  |  |  |
|  | enfuvirtide |  |  | 0.0905 |  |  | Active | inactive |
|  | Cc1cc2c(c(O)c1-c1c(C)cc3c(c1O)/C(=C/NC(C)C(=O)NC(C)C(=O)O)C(=O)C(O)=C3C(C)C)/C(=C/NC(C)C(=O)NC(C)C(=O)O)C(=O)C(O)=C2C(C)C (single isomer, unassigned; (-)) |  |  |  |  |  | Active | inactive |
| 5.35 | Cc1cc2c(c(O)c1-c1c(C)cc3c(c1O)/C(=C/NC(CC(=O)[O-])C(=O)NC(C)C(=O)[O-])C(=O)C(O)=C3C(C)C)/C(=C/NC(CC(=O)[O-])C(=O)NC(C)C(=O)[O-])C(=O)C(O)=C2C(C)C.[Na+].[Na+].[Na+].[Na+] (stereo in doubt; (+)-4b) | 51.2 | 9.56 |  |  |  |  |  |
| 5.92 | Cc1cc2c(c(O)c1-c1c(C)cc3c(c1O)/C(=C/N[C@H](C(=O)[O-])C(C)C)C(=O)C(O)=C3C(C)C)/C(=C/N[C@H](C(=O)[O-])C(C)C)C(=O)C(O)=C2C(C)C.[Na+].[Na+] (stereo in doubt; (+)-9b) | 63.8 | 10.78 |  |  |  |  |  |
| 0.35 | Cc1cc2c(c(O)c1-c1c(C)cc3c(c1O)/C(=C/N[C@@H](C)C(=O)[O-])C(=O)C(O)=C3C(C)C)/C(=C/N[C@@H](C)C(=O)[O-])C(=O)C(O)=C2C(C)C.[Na+].[Na+] (stereo in doubt; (-)-8a) |  | 183.29 |  | 64.2 |  |  |  |
| 9.06 | Cc1cc2c(c(O)c1-c1c(C)cc3c(c1O)/C(=C/N[C@@H](Cc1c[nH]c4ccccc14)C(=O)[O-])C(=O)C(O)=C3C(C)C)/C(=C/N[C@@H](Cc1c[nH]c3ccccc13)C(=O)[O-])C(=O)C(O)=C2C(C)C.[Na+].[Na+] (stereo in doubt; (+)-12b) | 57 | 6.29 |  |  |  |  |  |
